Measured values: patent US20030213746A1, “Neurosteroids as markers for alzheimer's disease” (priority 2003, published 2003)

What was measured:
NHA cells [1] = assay: Alternative pathway D synthesis; type: cell-based, human; settings: FeSO4, two hours, only seen at the highest dose
Protocol: (§1) Alternative Pathway: To determine the amount of D synthesized by the alternative pathway cells were treated as previously described (15). In brief, cells were washed and oligodendrocytes and astrocytes were incubated with increasing concentrations of FeSO4 in serum free media, with and without SU 10603 (10 mM); neurons were incubated in serum free media containing 5 mM P plus FeSO4, with and without 10 mM SU 10603. After two hours, cells and media were homogenized and extracted as described above. Extracts were run on C18 TLC plates (Whatman, Clifton, N.J.) with a mobile phase of 95% methanol (v/v); radiolabeled standards for P, progesterone, and D were run on each plate, and appropriate steroid fractions were collected for each sample. TLC fractions were extracted with 2 ml diethyl ether (Fluka, New York) and evaporated. TLC extracts were assayed by specific radioimmunoassay (RIA). In separate experiments, steroids eluted from TLC were further identified by HPLC, RIA and Gas Chromatography-Mass Spectrometry (data not shown).
(§2) RIA using antibodies specific for each steroid (ICN Pharmaceuticals, Costa Mesa, Calif. Mesa) was used to measure P, progesterone and D levels. The data were analyzed using the IBM-PC RIA Data Reduction Program (version 4.1) from Jaffe and Associates (Silver Spring, Md.). Levels of β-amyloid species in AD and control brain samples were analyzed using 4G8 (Senetex PLC, Napa, Calif.), a monoclonal antibody to β-amyloid peptide that recognizes amino acids 17-24. Samples in 0.25 M sucrose buffer were run on 4-20% precast gradient gels (Novex, San Diego, Calif.). Samples were transferred to nitrocellulose membranes and incubated in primary antibody for 1 hour at room temperature at a dilution of 1:2000. Membranes were incubated in secondary antibody (1:1000) for 1-1.5 hours at room temperature and blots were visualized using ECL reagents (Amersham Pharmacia Biotech, Pisquataway, N.J.). Blots were exposed to X-OMAT film.

KG-1-C cells = assay: Alternative pathway D synthesis; type: cell-based, human; settings: increasing concentrations of FeSO4, two hours
Protocol: as §1, §2

MGM-1 cells [2] = assay: Alternative pathway D synthesis; type: cell-based, human; settings: increasing concentrations of FeSO4, two hours
Protocol: as §1, §2

MGM-3 cells = assay: Alternative pathway D synthesis; type: cell-based, human; settings: increasing concentrations of FeSO4, two hours
Protocol: as §1, §2

hNT-PF cells = assay: Alternative pathway D synthesis; type: cell-based, human
Protocol: as §1, §2

[3] = test system: brain samples from AD and Control Patients; assay: FeSO4 treatment of brain homogenates, P and D by RIA after HPLC; set-up: species or system human
Protocol: (§3) Tissue Samples: For brain samples from Alzheimer's patients and control patients, samples were treated as previously described (17). In brief, aliquots of homogenates were incubated with a final concentration of 30 mM (brain) or 10 mM (serum and CSF) FeSO4 at 37° C. for 2 hours. After 2 hours, samples were extracted and purified as described for the endogenous levels, and assayed by specific radioimmunoassay.
as §2

NHA cells [4] = assay: ROS measurement by 2,7-DCF fluorescence; type: cell-based, human; settings: all concentrations of FeSO4 tested
Protocol: (§4) Treatment media was removed and the cells were washed with PBS. The fluorescent probe 2,7-dichlorofluorescin diacetate (2,7-DCF, Molecular Probes, Inc., Eugene, Oreg.) was used to measure levels of oxidative stress (48). Cells were incubated with […] 2,7-DCF, fluorescence was measured at 485 nm/535 nm using the Victor^2 Multilabel Counter (EG&G Wallac, Gaithersburg, Md.) and values of cellular fluorescence were obtained.

MGM-1 cells [5] = assay: ROS measurement by 2,7-DCF fluorescence; type: cell-based, human
Protocol: β-Amyloid Regulation of the Alternative Pathway: MGM-1 cells were plated on 96 well (˜5,000 cells/well, for ROS measurements) or 24 well (˜15,000 cells/well, for D measurements) plates (Corning Costar, Acton, Mass.). At the same time, 1 mg Ab (Ab(1-42), AnaSpec Inc., San Jose, Calif.) was dissolved in 0.5 ml serum-free media and incubated at 4 C. for aggregation. 24 hours later, cells were incubated in DMEM with 10% fetal bovine serum and […] and 10 mM Vitamin E (Sigma, St. Louis, Mo.). Control samples were incubated in DMEM with 10% FBS. Cells were incubated at 37 C. and 6% CO2 for at least 12 hours and processed for ROS generation (see below) or D synthesis as described above for the alternative experiments.
as §4

[6] = test system: serum from AD and control patients; assay: FeSO4 treatment of serum, DHEA by RIA; set-up: species or system human
Protocol: as §3
Serum and CSF Levels of DHEA: Serum was obtained from 11 patients, 5 with AD and 6 age-matched controls. Serum samples were split and treated with and without 10 mM FeSO4. Serum and CSF samples were extracted as described for the brain tissue samples, and purified by HPLC. DHEA levels were measured by specific radioimmunoassay.

[7] = test system: oligodendrocytes or astrocytes; assay: D production after addition of P; type: cell-based, human; settings: addition of 5 μM P, data not shown
cell lines used = assay: P levels with SU 10603 alone; type: cell-based, human; settings: any of the cell lines used, data not shown
human brain cells = assay: D formation with SU 10603; type: cell-based; settings: all human brain cells examined
Protocol: as §1

KG-1-C and MGM-3 cells = assay: De novo steroid synthesis from 3H-mevalonactone; type: cell-based, human; settings: 5 mM SU 10603, KG-1-C and MGM-3 cells, radiolabeled D
Protocol: De Novo Steroid Synthesis: All steroid synthesis experiments were performed with the cells at 60-80% confluency. In order to determine the ability of the cells to synthesize steroids de novo, cells were incubated for two hours at 37 C. and 6% CO2, with specific steroidogenic enzyme inhibitors as previously described (50). In brief, endogenous cholesterol synthesis was blocked by incubating cells with 20 mM Mevastatin in serum-free media (Sigma, St. Louis, Mo.) for 1 hour. 10 mM Trilostane and 5 mM SU 10603 were then added. After 30 minutes, […] ^3H-mevalonactone (33 Ci/mmol, DuPont NEN, Boston, Mass.) and 10 mM cold mevalonactone (Sigma, St. Louis, Mo.) were added. Thirty minutes later, media and cells were combined and homogenized on ice for 20 sec. Homogenates were extracted twice with 4 ml of ether:ethyl acetate (1:1, v/v, Fluka, New York, and EM Science, Gibbstown, N.J.) and evaporated. Extracts were reconstituted in 100% methanol and separated on a Beckman System Gold HPLC system, using a 126NM Solvent Module, 166NM Detector and a Beckman ultrasphere XL 3-mm Spherical 80 A pore column (Beckman, Fullerton, Calif.), eluted on a methanol gradient. Fractions were collected each minute and counted by liquid scintillation spectrometry (EG&G Wallac, Gaithersburg, Md.) to determine production of radiolabeled steroids. […]

MGM-1 cells [8] = assay: β-Amyloid regulation of the alternative pathway, D levels; type: cell-based, human
Protocol: as §1, with “In separate experiments, steroids eluted from TLC were further identified by HPLC, RIA and Gas Chromatography-Mass Spectrometry (data not shown).” left out
RIA using antibodies specific for each steroid (ICN Pharmaceuticals, Costa Mesa, Calif. Mesa) was used to measure P, progesterone and D levels. The data were analyzed using the IBM-PC RIA Data Reduction Program (version 4.1) from Jaffe and Associates (Silver Spring, Md.). Levels of β-amyloid species in AD and control brain samples were analyzed using 4G8 (Senetex PLC, Napa, Calif.), a monoclonal antibody to β-amyloid peptide that recognizes amino acids 17-24. […]

Human glioma cells = assay: Vitamin E treatment, ROS and D levels; type: cell-based; settings: 10 mM Vitamin E, at least twelve hours, data not shown
Protocol: as §1, with “In separate experiments, steroids eluted from TLC were further identified by HPLC, RIA and Gas Chromatography-Mass Spectrometry (data not shown).” left out
Treatment media was removed and the cells were washed with PBS. […] Cells were incubated with […] 2,7-DCF, fluorescence was measured at 485 nm/535 nm using the Victor^2 Multilabel Counter (EG&G Wallac, Gaithersburg, Md.) and values of cellular fluorescence were obtained.
We hypothesized that high endogenous levels of ROS might be responsible for the de novo D formation in KG-1-C and MGM-3 cells. […] We measured ROS and D levels in these cells as described in the Experimental Procedures. […]

[9] = 30 mM FeSO4, frontal cortex, AD patients
[10] = 30 mM FeSO4, frontal cortex, control patients (C)
[11] = 30 mM FeSO4, hippocampus, AD patients
[12] = 30 mM FeSO4, hippocampus, control patients (C)
[13] = 30 mM FeSO4, hypothalamus, AD patients
[14] = 30 mM FeSO4, hypothalamus, control patients (C)

O=S(=O)([O-])[O-].[Fe+2] [FeSO4]
effect on D formation (NHA cells [1]): significant effect
effect on D levels (KG-1-C cells): did not significantly affect
D synthesis via the alternative pathway (MGM-1 cells [2]): has the ability to make D via the alternative pathway
effect on D levels (MGM-3 cells): did not significantly affect
effect on D levels (hNT-PF cells; increasing concentrations of FeSO4 plus 5 mM P): not affected
D (pg/mg protein) [3, 9]: 219.3 pg/mg protein
P (pg/mg protein) [3, 9]: 10485.5 pg/mg protein
D (pg/mg protein) [3, 10]: 70.0 pg/mg protein
P (pg/mg protein) [3, 10]: 7339.8 pg/mg protein
D (pg/mg protein) [3, 11]: 241.7 pg/mg protein
P (pg/mg protein) [3, 11]: 11584.0 pg/mg protein
D (pg/mg protein) [3, 12]: 128.3 pg/mg protein
P (pg/mg protein) [3, 12]: 8529.3 pg/mg protein
D (pg/mg protein) [3, 13]: 180.8 pg/mg protein
P (pg/mg protein) [3, 13]: 6640.3 pg/mg protein
D (pg/mg protein) [3, 14]: 61.4 pg/mg protein
P (pg/mg protein) [3, 14]: 7707.2 pg/mg protein
ROS levels above untreated cells (NHA cells [4]): significant increase
ROS levels above untreated cells (MGM-1 cells [5]; all concentrations of FeSO4 tested, MGM-1): significant increase
effect on D levels ([6]; 10 mM FeSO4, AD serum): little effect
increase in D levels ([6]; 10 mM FeSO4, control serum): 1.5-3 fold

CC(=O)[C@H]1CC[C@H]2[C@@H]3CC=C4C[C@@H](O)CC[C@]4(C)[C@H]3CC[C@]12C [P, pregnenolone]
D production [7]: did not result in increased D production

O=C1c2cc(Cl)ccc2CCC1c1cccnc1 (centres unmarked) [SU 10603]
effect on D levels (hNT-PF cells; SU 10603 treatment): not affected
effect on P levels (cell lines used): no effect
inhibition of D formation (human brain cells): did not inhibit
blocking endogenous D production (KG-1-C and MGM-3 cells): not effective

Aβ: β-amyloid peptide Ab(1-42), AnaSpec Inc., aggregated; a component of Alzheimer's disease plaques
2,7-DCF fluorescence (ROS) versus control levels (MGM-1 cells [5]; 50 mM Aβ, MGM-1, p<0.01): significant increase
D levels versus control (MGM-1 cells [8]; 50 mM Aβ, MGM-1, p<0.01): increased D levels significantly over control

Vitamin E
D levels compared to untreated cells (Human glioma cells): lowered
ROS levels compared to untreated cells (Human glioma cells): lowered
effect on Aβ-induced increase in ROS (MGM-1 cells [5]; 10 mM Vitamin E with 50 mM Aβ, MGM-1, p=0.054): partially blocked
effect on Aβ-induced increase in D levels (MGM-1 cells [8]; 10 mM Vitamin E with 50 mM Aβ, MGM-1, p<0.05 versus Ab): blocked
